Measured values published in the supplement of paper PMC10307832.

Tests used:
Assay in all cases: relative viability (nuclei count vs DMSO), 5 days (fraction); higher = more cells survive
KN-93 + Tozasertib = compound: CN(C/C=C/C1=CC=C(C=C1)Cl)CC2=CC=CC=C2N(CCO)S(=O)(=O)C3=CC=C(C=C3)OC [KN-93] + Cc1cc(Nc2cc(N3CCN(C)CC3)nc(Sc3ccc(NC(=O)C4CC4)cc3)n2)n[nH]1 [Tozasertib] (partner 0.1 µM)
Outline: (§1)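 Lung cancer cell lines in 1536-well plates got either a single drug or a fixed anchor-drug dose together with five library-drug doses (not always all listed) in √10 steps, by pin tool, on the day after seeding. Nuclei were counted after 5 days, and relative viability is the treated-to-vehicle ratio of nuclei counts. Values are medians of duplicate plates.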

KN-93 + Pictilisib = compound: CN(C/C=C/C1=CC=C(C=C1)Cl)CC2=CC=CC=C2N(CCO)S(=O)(=O)C3=CC=C(C=C3)OC [KN-93] + CS(=O)(=O)N1CCN(Cc2cc3nc(-c4cccc5[nH]ncc45)nc(N4CCOCC4)c3s2)CC1 [Pictilisib] (partner 1 µM)
Outline: as §1

KN-93 + Alpelisib = compound: CN(C/C=C/C1=CC=C(C=C1)Cl)CC2=CC=CC=C2N(CCO)S(=O)(=O)C3=CC=C(C=C3)OC [KN-93] + Cc1nc(NC(=O)N2CCC[C@H]2C(N)=O)sc1-c1ccnc(C(C)(C)C(F)(F)F)c1 [Alpelisib] (partner 2 µM)
Outline: as §1

KN-93 + Phenformin = compound: CN(C/C=C/C1=CC=C(C=C1)Cl)CC2=CC=CC=C2N(CCO)S(=O)(=O)C3=CC=C(C=C3)OC [KN-93] + N=C(N)NC(=N)NCCc1ccccc1 [Phenformin] (partner 250 µM)
Outline: as §1

KN-93 + Vorinostat = compound: CN(C/C=C/C1=CC=C(C=C1)Cl)CC2=CC=CC=C2N(CCO)S(=O)(=O)C3=CC=C(C=C3)OC [KN-93] + O=C(CCCCCCC(=O)Nc1ccccc1)NO [Vorinostat] (partner 1 µM)
Outline: as §1

Cell Line	relative viability (KN-93 + Tozasertib; first compound 0.08 µM)	relative viability (KN-93 + Tozasertib; first compound 0.253 µM)	relative viability (KN-93 + Tozasertib; first compound 2.53 µM)	relative viability (KN-93 + Tozasertib; first compound 8 µM)	relative viability (KN-93 + Pictilisib; first compound 0.08 µM)	relative viability (KN-93 + Pictilisib; first compound 0.253 µM)	relative viability (KN-93 + Pictilisib; first compound 2.53 µM)	relative viability (KN-93 + Pictilisib; first compound 8 µM)	relative viability (KN-93 + Alpelisib; first compound 0.08 µM)	relative viability (KN-93 + Alpelisib; first compound 0.253 µM)	relative viability (KN-93 + Alpelisib; first compound 2.53 µM)	relative viability (KN-93 + Alpelisib; first compound 8 µM)	relative viability (KN-93 + Phenformin; first compound 0.08 µM)	relative viability (KN-93 + Phenformin; first compound 0.253 µM)	relative viability (KN-93 + Phenformin; first compound 2.53 µM)	relative viability (KN-93 + Phenformin; first compound 8 µM)	relative viability (KN-93 + Vorinostat; first compound 0.08 µM)	relative viability (KN-93 + Vorinostat; first compound 0.253 µM)	relative viability (KN-93 + Vorinostat; first compound 2.53 µM)	relative viability (KN-93 + Vorinostat; first compound 8 µM)
H3255	0.539	0.864	0.82	0.433	0.422	0.527	0.492	0.391	0.664	0.788	0.631	0.532	0.383	0.339	0.401	0.362	0.842	0.76	0.927	0.311
HARA	0.125	0.104	0.111	0.11	0.366	0.36	0.3	0.2	0.811	0.775	0.705	0.471	0.329	0.477	0.543	0.148	0.394	0.475	0.503	0.493
HCC-15	0.284	0.523	0.312	0.101	0.547	0.866	0.861	0.524	0.816	1.09	0.884	0.744	0.401	0.522	0.685	0.42	0.773	0.877	0.932	0.738
HCC-44	0.912	0.809	0.863	0.526	0.728	0.569	0.503	0.398	0.775	0.746	0.99	0.549	0.314	0.202	0.331	0.16	1.13	1.1	1.12	0.915
HCC-78	0.392	0.369	0.369	0.382	0.251	0.185	0.193	0.182	0.385	0.276	0.393	0.212	0.769	0.664	0.636	0.652	0.465	0.405	0.739	0.381
HCC-366	0.0849	0.0834	0.111	0.0411	0.117	0.0961	0.134	0.107	–	0.394	0.507	0.172	0.595	0.661	0.639	0.277	0.301	0.251	0.514	0.168
HCC-827	0.445	0.492	0.404	0.337	1.08	0.982	1.03	0.986	0.959	0.985	0.962	0.755	0.417	0.385	0.479	0.407	0.929	0.874	0.793	0.777
HOP-62	0.395	0.44	0.401	0.273	0.626	0.741	0.968	0.428	1.1	1.22	1.22	0.866	0.525	0.835	0.849	0.741	0.557	0.824	0.748	0.487
LC-2-ad	0.444	0.393	0.483	0.389	0.313	0.373	0.368	0.187	0.815	0.945	0.84	0.53	0.651	0.678	0.645	0.553	0.688	0.801	0.746	0.582
LCLC-97TM1	0.254	0.229	0.226	0.194	0.176	–	0.182	0.156	0.282	–	0.217	0.206	0.418	0.494	0.488	0.407	0.629	0.723	0.637	0.437
LCLC-103H	0.427	0.501	0.434	0.376	0.617	0.581	0.614	0.537	1	0.994	0.92	0.861	0.319	0.341	0.359	0.31	0.782	0.768	0.658	0.573
LK-2	0.212	0.191	0.163	0.158	0.683	0.679	0.725	0.314	0.905	1.51	1.32	0.673	0.505	0.398	0.341	0.233	0.241	0.279	0.426	0.19
LOU-NH91	0.618	0.663	0.586	0.477	0.513	0.422	0.568	0.489	0.716	0.647	0.756	0.64	0.667	0.614	0.8	0.628	0.957	0.835	0.903	0.8
LU99A	0.239	0.287	0.246	0.212	0.302	0.366	0.32	0.308	0.525	0.636	0.557	0.39	0.91	0.88	0.774	0.676	0.282	0.48	0.535	0.343
LXF-289	0.201	0.25	0.215	0.147	0.724	0.891	0.825	0.559	0.974	1.11	1.11	0.705	0.515	0.568	0.597	0.504	0.661	0.839	0.716	0.546
